{
  "source": "patent US20050196751A1",
  "about": "“Adenoviral vector-mediated delivery of modified steroid hormone receptors and related products and methods” (priority 1998, published 2005)",
  "system": "C57BL/6 mice",
  "assay": "Serum hGH in adenoviral infected mice after RU486 (radio-immunoassay)",
  "format": "in vivo, mouse",
  "method": "RU486 (250 μg/kg) was administered every second day after infection for a period of two weeks as indicated by arrows. Mice were bled at different time points and serum hGH was analyzed by radio-immunoassay. Mice 1 and 2 received intraperitoneal injections (IP) of RU486; Mouse 3 (−RU486) received sesame oil. hGH serum levels are shown as μg/ml.\nMice infected for two weeks with the regulatable adenoviral construct hGHGLp65 were induced with […] RU486 as indicated by an arrow. 3, 6, 12, 24, 48, 72, 120 and 192 hours after RU486 administration blood was drawn from the mice, and hGH was measured in the serum by a radio-immunoassay. hGH serum levels of individual mice are shown in μg/ml.\nMice infected with hGH-GLp65 or hGH-H-GLp65 adenoviral vectors were induced 3 times with 250 μg/kg RU486 over a time period of 50 Days. hGH was measured prior to, 12 hours after, and 7 days after RU486 administration. […] Serum levels of hGH are shown in μg/ml.\nhGH analysis in adenoviral infected mice. […] Serum hGH levels were detected using a radio-immunoassay. […]\nTo investigate the kinetics of the regulatory system, mice received a single RU486 administration two weeks after the initial infection and serum hGH levels were measured at different time intervals. […]",
  "data": [
    {"smiles": "CC#C[C@]1(O)CC[C@H]2[C@@H]3CCC4=CC(=O)CCC4=C3[C@@H](c3ccc(N(C)C)cc3)C[C@@]21C", "note": "[RU486, mifepristone]", "values": [
      {"measurement": "doses of RU486 needed for induction", "setting": "induction of transgene in the regulatory system", "result": "0.1 to 0.5", "unit": "mg/kg"},
      {"measurement": "hGH induction with oral versus I.P. RU486", "setting": "oral RU486 administration compared with intraperitoneal", "result": "comparable"}
    ]}
  ]
}
